# Tests used:
# PC-3 [1] = test: inhibition of proliferation (PicoGreen DNA assay), PC-3; format: cell-based; conditions: Homo sapiens
# Experimental: (§1) We tested a subset of the 50 sulfonamide analogues for inhibition of proliferation of the MDA-MB-231, PC-3, MCF-7, and HCT-116 cancer cell lines. Following plating of the cells (24 hrs) in eight identical 96-well plates, the cells were treated with either Compound 1, 4, 15, or vehicle (DMSO) using a dose range of 1.6 to 5000 nM. After the lysis of cells, the cell lysate was resuspended in 25 μl PBS and the DNA was quantified using a PicoGreen assay by measuring fluorescence at Ex490 nm/Em535 nm. Cell proliferation was inhibited by Compounds 1, 4, and 15 for all the cancer cell lines tested with inhibition constants listed in Table 2.
# HCT-116 [2] = test: inhibition of proliferation (PicoGreen DNA assay), HCT-116; format: cell-based; conditions: Homo sapiens
# Experimental: as §1
# HCT-116 [3] = test: viability (Alamar Blue), HCT-116; format: cell-based; conditions: Homo sapiens; HCT-116, 24 hrs
# Experimental: (§2) Given Compounds 1, 4, and 15 inhibited cancer cell proliferation and stimulated apoptosis, we tested the effects compounds 1, 4, and 15 on cancer cell viability and cytotoxicity. The MDA-MB-231, MCF-7, PC-3, and HCT-116 cells were treated with the indicated compounds for 24 hrs. over a dose range from 1.6 to 5000 nM. Viability and cytotoxicity were then measured by the Alamar Blue and Vibrant Cytotox assays respectively.
# [4] = system: Endogenous Target Genes for Wnt & Apoptotic Pathways in PC-3; test: qPCR of Wnt and pro-apoptotic target genes, PC-3; format: cell-based; set-up: concentration or dose not given beside the values; conditions: PC-3, 24 hrs, qPCR normalized to 36B4
# Experimental: (§3) Given the effects of Compounds 1, 4, and 15 on biological functions (e.g., proliferation, viability, and apoptosis) in several cancer cell lines, we tested the effects of compounds 1, 4, and 15 on regulation of endogenous Wnt and pro-apoptotic gene expression. MDA-MB-231, MCF-7, PC-3, and HCT-116 cancerncells were treated with the indicated compounds for 24 hrs. over a dose range from 1.6 to 5000 nM. Gene expression was measured using qPCR, normalized to the housekeeping gene, 36B4, and calculated % change relative to DMSO control. NC, no change.
# HCT-116 [5] = test: stimulation of apoptosis, Caspase 3/7 cleavage (Caspase-Glo Kit), HCT-116; format: cell-based; conditions: Homo sapiens, HCT-116, 24 hrs
# Experimental: (§4) Given Compounds 1, 4, and 15 inhibited cancer cell proliferation, we tested whether compounds 1, 4, and 15 stimulated cancer cell apoptosis. The MDA-MB-231, MCF-7, PC-3, and HCT-116 cells were treated with the indicated compounds for 24 hrs. over a dose range from 1.6 to 5000 nM. Apoptosis was then measured by monitoring Caspase 3/7 cleavage (Caspase-Glo Kit).
# [6] = cytotoxicity (Vibrant Cytotox assay), LNCap; format: cell-based; conditions: human, LNCap cells
# PC-3 [7] = test: stimulation of apoptosis, Caspase 3/7 cleavage (Caspase-Glo Kit), PC-3; format: cell-based; conditions: Homo sapiens, PC-3, 24 hrs
# Experimental: as §4
# MCF-7 = test: inhibition of proliferation (PicoGreen DNA assay), MCF-7; format: cell-based; conditions: Homo sapiens, MCF7
# Experimental: as §1
# MDA-MB-231 = test: inhibition of proliferation (PicoGreen DNA assay), MDA-MB-231; format: cell-based; conditions: Homo sapiens
# Experimental: as §1
# LNCap = test: viability (Alamar Blue), LNCap; format: cell-based; conditions: Homo sapiens, 24 hrs
# [8] = system: Wnt transcriptional activity; test: cell-based Wnt-luciferase reporter assay (SuperTOPFlash); conditions: for Relative potency for Wnt inhibition: relative to IWR-1, transfected HEK293A cells treated 12 hours, normalized to Renilla
# From the text: “Hit” 1 (FIG. 1) was identified as a Wnt inhibitor in a high-throughput screen of a library of 74,000 compounds using a cell-based Wnt-luciferase reporter assay as a readout of Wnt transcriptional activity. […] Wnt transcriptional activity was monitored in HEK-293T cells using a luciferase-based Wnt reporter (SuperTOPFlash) stimulated by Wnt3a conditioned media.
# Medicinal chemical refinement of “hit” 1 was undertaken to improve its potency, maintain non-toxicity, increase water solubility and improve bioavailability. The SAR refinement of functional activity of “hit” 1 on the inhibition of the Wnt pathway was determined using a cell-based Wnt-luciferase reporter assay (described above). with Renilla Luciferase was used as a normalization for transfection efficiency. 6-8 hours after transfection, transfected HEK293A cells were treated with 1 and each analog for 12 hours. Both firefly and renilla luciferase activities were measured using a plate reader. A library of compounds was tested to obtain an SAR for 1. Compound 1 and its analogs are synthesized by a two step synthesis, Scheme 1.
# Signaling was tested using a standard luciferase response system for canonical Wnt/β-catenin/TCF signaling. Briefly, we used a cell line that had been transfected with a luciferase reporter gene under the control of the response element of a transcription factor that is activated by association with β-catenin and is the target of canonical Wnt signaling.
# [9] = system: Endogenous Target Genes for Wnt & Apoptotic Pathways in MCF-7; test: qPCR of Wnt and pro-apoptotic target genes, MCF-7; format: cell-based; set-up: MYC expression, % change relative to DMSO control / BAX expression, % change relative to DMSO control / BAK expression, % change relative to DMSO control / BBC3 expression, % change relative to DMSO control / FOS expression, % change relative to DMSO control: concentration or dose not given beside the values; conditions: MCF-7, 24 hrs, qPCR normalized to 36B4
# Experimental: as §3
# PC-3 [10] = test: viability (Alamar Blue), PC-3; format: cell-based; conditions: Homo sapiens; PC-3, 24 hrs
# Experimental: as §2
# [11] = cytotoxicity (Vibrant Cytotox assay), HCT-116; format: cell-based; conditions: human, HCT-116 cells; HCT-116, 24 hrs
# Experimental: as §2
# [12] = system: Endogenous Target Genes for Wnt & Apoptotic Pathways in LNCAP; test: qPCR of Wnt and pro-apoptotic target genes, LNCAP; format: cell-based; set-up: MYC expression, % change relative to DMSO control / CCDN1 expression, % change relative to DMSO control / BAX expression, % change relative to DMSO control / BAK expression, % change relative to DMSO control / BBC3 expression, % change relative to DMSO control / FOS expression, % change relative to DMSO control: concentration or dose not given beside the values; conditions: 24 hrs, qPCR normalized to 36B4
# [13] = cytotoxicity (Vibrant Cytotox assay), MDA-MB-231; format: cell-based; conditions: human, MDA-MB-231 cells; MDA-MB-231, 24 hrs
# Experimental: as §2
SMILES,IC50 (PC-3 [1]) [nM],IC50 (HCT-116 [2]) [nM],IC50 (HCT-116 [3]) [nM],"BAK expression, % change relative to DMSO control [4] [%]","BAX expression, % change relative to DMSO control [4]","BBC3 expression, % change relative to DMSO control [4] [%]","CCDN1 expression, % change relative to DMSO control [4]","FOS expression, % change relative to DMSO control [4]","JUN expression, % change relative to DMSO control [4]","MYC expression, % change relative to DMSO control [4]",IC50 (HCT-116 [5]) [nM],IC50 at 24 h [6] [nM],IC50 (PC-3 [7]) [nM],IC50 (MCF-7) [nM],IC50 (MDA-MB-231) [nM],IC50 (LNCap) [nM],"BAK expression, % change relative to DMSO control [9]","BBC3 expression, % change relative to DMSO control [9]","CCDN1 expression, % change relative to DMSO control [9]","FOS expression, % change relative to DMSO control [9] [%]",other results
"O=C1CCCN1c1ccc(S(=O)(=O)N2CCCc3ccccc32)cc1 [Compound 1, 1-(4-(3,4-dihydroquinolin-1(2H)-ylsulfonyl)phenyl)pyrrolidin-2-one]",20,40,30,−20,+5%,−38,+10%,+75%,+75%,+25%,96,> 5000,49,20,100,90,−10%,−55%,+50%,−70,"EC50 ([8]; Homo sapiens, HEK-293T cells, SuperTOPFlash stimulated by Wnt3a conditioned media, read-out: inhibition of Wnt transcriptional activity, EC50): ~25 nM; Relative potency for Wnt inhibition [8]: +++ (between 40 to 60% potency compared to IWR-1); JUN expression, % change relative to DMSO control [9]: +125%; MYC expression, % change relative to DMSO control [9]: −25%; IC50 (PC-3 [10]): 157 nM; IC50 at 24 h [11]: > 5000 nM; BAK expression, % change relative to DMSO control [12]: −22%; BAX expression, % change relative to DMSO control [12]: −30%; BBC3 expression, % change relative to DMSO control [12]: −90%; CCDN1 expression, % change relative to DMSO control [12]: −10%; FOS expression, % change relative to DMSO control [12]: −15%; MYC expression, % change relative to DMSO control [12]: −35%; IC50 at 24 h [13]: > 5000 nM"
"CC1CCc2ccccc2N1S(=O)(=O)c1ccc(N2CCCC2=O)cc1 (stereo not shown) [Compound 4, 1-(4-(2-methyl-3,4-dihydroquinolin-1(2H)-ylsulfonyl)phenyl)pyrrolidin-2-one]",100,100,52,−55,−55%,−37,−42%,−25%,−25%,−75%,143,> 5000,117,40,250,87,+25%,−40%,+100%,−85,"Relative potency for Wnt inhibition [8]: ++++ (between 60 to 80% potency compared to IWR-1); BAX expression, % change relative to DMSO control [9]: +75%; JUN expression, % change relative to DMSO control [9]: +50%; MYC expression, % change relative to DMSO control [9]: −5%; IC50 (PC-3 [10]): 17 nM; IC50 at 24 h [11]: > 5000 nM; BAK expression, % change relative to DMSO control [12]: −42%; BAX expression, % change relative to DMSO control [12]: −55%; BBC3 expression, % change relative to DMSO control [12]: −85%; CCDN1 expression, % change relative to DMSO control [12]: −30%; FOS expression, % change relative to DMSO control [12]: −38%; MYC expression, % change relative to DMSO control [12]: −40%; IC50 at 24 h [13]: > 5000 nM"
"CN1CCN(S(=O)(=O)c2ccc(N3CCCC3=O)cc2)c2ccccc21 [Compound 15, 1-(4-(4-methyl-3,4-dihydroquinoxalin-1(2H)-ylsulfonyl)phenyl)pyrrolidin-2-one]",20,15,9,−58,−54%,−45,−30%,−24%,−30%,−60%,15,> 5000,32,20,25,124,+45%,+75%,+50%,−75,"inhibition of Wnt transcriptional activity, IC50 (class symbol) ([8]; tested simultaneously with p53 reporter): ++++ (between 60 to 80% potency compared to IWR-1); BAX expression, % change relative to DMSO control [9]: −25%; JUN expression, % change relative to DMSO control [9]: +150%; MYC expression, % change relative to DMSO control [9]: −50%; IC50 (PC-3 [10]): 32 nM; IC50 at 24 h [11]: > 5000 nM; BAK expression, % change relative to DMSO control [12]: −45%; BAX expression, % change relative to DMSO control [12]: −58%; BBC3 expression, % change relative to DMSO control [12]: −55%; CCDN1 expression, % change relative to DMSO control [12]: −28%; FOS expression, % change relative to DMSO control [12]: −25%; JUN expression, % change relative to DMSO control [12]: +45%; MYC expression, % change relative to DMSO control [12]: −45%; IC50 at 24 h [13]: > 5000 nM"

# From patent publication US9403800B2, “Compounds for inhibition of cancer cell proliferation” (ChemRegen, Inc., priority 2012, dated 2016)
